# Test results from US20210145722A1, “ACTIVE SUBSTANCE COMBINATIONS OF N-(4-AMINO-2-METHYLQUINOLIN-6-YL)-2-((4-ETHYLPHENOXY)METHYL)BENZAMIDE AND ONE OR MORE COSMETICALLY OR DERMATOLOGICALLY ACCEPTABLE FRAGRANCES” (BEIERSDORF AG, priority 2017, published 2021).
# Read-outs that look alike come from different tables or passages of the source.
# How the values were obtained:
# subcutaneous adipocytes = assay: Lipid assay (AdipoRed staining of differentiated adipocytes); format: cell-based; conditions: combination with 10 ng/ml N-(4-amino-2-methylquinolin-6-yl)-2-((4-ethylphenoxy)methyl)benzamide; one week treatment
# Protocol: The lipid assay is performed on subcutaneous adipocytes. Cell culture dishes are inoculated with preadipocytes, which undergo differentiation into adipocytes. This is followed by treatment with the active substance for one week, during which the cells synthesize lipids and store them in vesicles. The total amount of lipid as a function of active substance effects is determined at the end of the culture period. This is done by staining the cell monolayer with the lipophilic fluorescent dye AdipoRed, followed by quantification by fluorescence spectroscopy.
# [1] = LDH (lactate dehydrogenase) cytotoxicity assay, fibroblasts
# Protocol: The third assay performed is the LDH (lactate dehydrogenase) cytotoxicity assay. In this assay, the metabolic enzyme LDH is detected in the medium supernatant of the cell monolayer by adding a substrate for the enzyme to the cell culture supernatant. Reaction of the latter produces a color change, which is determined photometrically. The magnitude of the color change correlates here with the amount of LDH in the cell culture supernatant.
# For all assays, the active substances were present as 1000× stocks dissolved to 10 mM in DMSO and were diluted 1:1000 in the appropriate cell culture medium for use.
# dermal fibroblasts = assay: BrdU viability assay (cell division rate); format: cell-based; conditions: combination with 10 ng/ml N-(4-amino-2-methylquinolin-6-yl)-2-((4-ethylphenoxy)methyl)benzamide; 24 h treatment
# Protocol: For the viability assay, dermal fibroblasts were treated with active substances/active substance combinations in the cell culture medium for 24 h and during this time were provided with BrdU (5-bromodeoxyuridine). The cells take up this synthetic nucleic acid, which is detectable by fluorescence detection, and incorporate it into newly synthesized genetic material during cell division. The fluorescence of the cell monolayer is then measured after 24 h, the intensity of which is ultimately a measure of the cell division rate during treatment with the active substance. This allows conclusions to be drawn about the effect of the individual active substances on cell viability.
# [2] = combination with 10 ng/ml N-(4-amino-2-methylquinolin-6-yl)-2-((4-ethylphenoxy)methyl)benzamide, table does not say whether fibroblasts or adipocytes
smiles,measurement,setting,value
C=CC(C)(O)CCC=C(C)CC (mixture of isomers) [Ethyl linalool],Assay in which the combination showed better activity than the corresponding active substance alone: Lipid,subcutaneous adipocytes,Lipid
"OCc1ccccc1 [Benzyl alcohol DD, Benzyl alcohol]",Assay in which the combination showed better activity than the corresponding active substance alone: Lipid,subcutaneous adipocytes,Lipid
O=C(C=Cc1ccccc1)OCc1ccccc1 [Benzyl cinnamate],Assay in which the combination showed better activity than the corresponding active substance alone: Lipid,subcutaneous adipocytes,Lipid
O=C(OCc1ccccc1)c1ccccc1O [Benzyl salicylate],Assay in which the combination showed better activity than the corresponding active substance alone: LDH,[1],LDH
"CC(C)=CCCC(C)=CC=O [Citral 95, Citral]",Assay in which the combination showed better activity than the corresponding active substance alone: BrdU,dermal fibroblasts,BrdU
"CC(C)=CCCC(C)CCO (centres unmarked) [Citronellol 950, Citronellol]",Assay in which the combination showed better activity than the corresponding active substance alone: LDH,[1]; [2],LDH
same,Assay in which the combination showed better activity than the corresponding active substance alone: Lipid,subcutaneous adipocytes,Lipid
C=CC(C)CCCC(C)(C)O (centres unmarked) [Dihydromyrcenol],Assay in which the combination showed better activity than the corresponding active substance alone: Lipid,subcutaneous adipocytes,Lipid
CCOc1cc(C=O)ccc1O [Ethyl vanillin],Assay in which the combination showed better activity than the corresponding active substance alone: Lipid,subcutaneous adipocytes,Lipid
C=CCc1ccc(O)c(OC)c1 [Eugenol],Assay in which the combination showed better activity than the corresponding active substance alone: BrdU,dermal fibroblasts,BrdU
CC(C)=CCCC(C)=CCCC(C)=CCO [Farnesol],Assay in which the combination showed better activity than the corresponding active substance alone: LDH,[1]; [2],LDH
CCCCCC1C(=O)CCC1CC(=O)OC (centres unmarked) [Hedion],Assay in which the combination showed better activity than the corresponding active substance alone: LDH,[1]; [2],LDH
same,Assay in which the combination showed better activity than the corresponding active substance alone: BrdU,dermal fibroblasts,BrdU
same,Assay in which the combination showed better activity than the corresponding active substance alone: Lipid,subcutaneous adipocytes,Lipid
CC/C=C\CCO [Hexenol cis-3],Assay in which the combination showed better activity than the corresponding active substance alone: LDH,[1]; [2],LDH
same,Assay in which the combination showed better activity than the corresponding active substance alone: BrdU,dermal fibroblasts,BrdU
same,Assay in which the combination showed better activity than the corresponding active substance alone: Lipid,subcutaneous adipocytes,Lipid
CCCCCCOC(=O)c1ccccc1O [Hexyl salicylate],Assay in which the combination showed better activity than the corresponding active substance alone: LDH,[1]; [2],LDH
same,Assay in which the combination showed better activity than the corresponding active substance alone: Lipid,subcutaneous adipocytes,Lipid
CC(CC=O)CCCC(C)(C)O (centres unmarked) [Hydroxycitronellal],Assay in which the combination showed better activity than the corresponding active substance alone: LDH,[1]; [2],LDH
CC(=O)C1(C)CC2=C(CCCC2(C)C)CC1C (centres unmarked) [Iso E Super],Assay in which the combination showed better activity than the corresponding active substance alone: LDH,[1]; [2],LDH
same,Assay in which the combination showed better activity than the corresponding active substance alone: Lipid,subcutaneous adipocytes,Lipid
CC(C=O)Cc1ccc(C(C)(C)C)cc1 (centres unmarked) [Lilial],Assay in which the combination showed better activity than the corresponding active substance alone: LDH,[1]; [2],LDH
"C=C(C)[C@H]1CC=C(C)CC1 [Limonene D pure, Limonene D]",Assay in which the combination showed better activity than the corresponding active substance alone: Lipid,subcutaneous adipocytes,Lipid
"C=CC(C)(O)CCC=C(C)C (centres unmarked) [Linalool aroma, Linalool]",Assay in which the combination showed better activity than the corresponding active substance alone: LDH,[1]; [2],LDH
same,Assay in which the combination showed better activity than the corresponding active substance alone: Lipid,subcutaneous adipocytes,Lipid
C=CC(C)(CCC=C(C)C)OC(C)=O (centres unmarked) [Linalyl acetate],Assay in which the combination showed better activity than the corresponding active substance alone: LDH,[1]; [2],LDH
O=C1CCCCCCCCCCCCCCO1 [Macrolide supra],Assay in which the combination showed better activity than the corresponding active substance alone: Lipid,subcutaneous adipocytes,Lipid
CCCCCC#CC(=O)OC [Methyl heptine carbonate],Assay in which the combination showed better activity than the corresponding active substance alone: LDH,[1]; [2],LDH
same,Assay in which the combination showed better activity than the corresponding active substance alone: Lipid,subcutaneous adipocytes,Lipid
OCCc1ccccc1 [Phenylethyl alcohol],Assay in which the combination showed better activity than the corresponding active substance alone: BrdU,dermal fibroblasts,BrdU
"Cc1ccc(C(C)C)c(O)c1 [Thymol cryst., Thymol]",Assay in which the combination showed better activity than the corresponding active substance alone: LDH,[1]; [2],LDH
